Test results from a melting point compilation (Tetko et al.; mined from patent text by program, amines drawn as free bases though some values may be those of a salt).

Structure (SMILES) | melting point [°C]
CCN1C=C(C(=O)O)C(=O)CC1c1ccccc1 (stereo unspecified) | 148 to 150
CC(C)(C)[Si](C)(C)Oc1ccc2cc3c(cc2c1)C(=O)c1cc2ccc(O[Si](C)(C)C(C)(C)C)cc2cc1C3=O | < 270
CC1CC(=O)NN=C1c1ccc(Nc2ccccc2)nc1 (stereo unspecified) | 202 to 204
C(CCCN1CCCNC1)CCCN1CCCNC1 | 52 to 53
COc1cc(OC)cc(-c2cc(=O)c3ccc(OCCCBr)cc3o2)c1 | 173 to 174
CC(=O)NNCc1c[nH]c(=S)n1[C@H]1CCc2c(F)cc(F)cc2C1 | 144 to 153
C=CCNC(=O)c1c(O)c2ccc(Cl)cc2n(C)c1=N | 212 to 214
c1cc2c3c(cccc3c1)NCN2 | 89 to 93
COC(=O)c1cc2ccc3c(c2c(-c2ccc4c(c2)OCO4)c1C(=O)OC)OCO3 | 157 to 159
Cc1cnc(NN)nc1N | 174 to 175
COc1ccc2c(c1)NCc1ccccc1O2 | 110 to 112
O=S1(=O)NCN(C2CC2)c2c1ccc(Cl)c2Cl | 132 to 133
CNC(=O)c1cc2c(nc(C)n2C)c2c1CCC(OC)(c1ccccc1C)O2 (stereo unspecified) | 257 to 261
CCOc1nn(CCOc2ccccc2CC(=O)O)cc1C(=O)NCc1ccc(Cl)cc1Cl | 167 to 169
CS(=O)(=O)CCN1C(=O)CN=C(c2ccccc2F)c2cc(Cl)ccc21 | 155 to 156
CNC(=O)Nc1snc(S(C)(=O)=O)c1C#N | 275
OCCNC(=S)NC(=Nc1cccc2ccccc12)c1ccccc1 | 131 to 132
NCCCNC(=O)c1cccc(Nc2nccc(-c3ccnc(NCCCO)c3)n2)c1 | 169 to 170
N#CCOc1cc2ccccc2cc1I | 105 to 107
CC(C)(C)c1ccc(C(O)CCCn2ccnc2)cc1 (stereo unspecified) | 205 to 207
O=C(O)[C@@H]1CSC(c2ccccc2O)N1C(=O)CCS (stereo partly specified) | 146 to 148

Other lines, results leading:

melting point [°C] | Structure (SMILES)
100 to 103 | COc1cccc(CCC(c2ccccc2)C(O)c2ccc(O)cc2)c1 (stereo unspecified)
262 to 264 | COc1ccc(-c2ccc3[nH]c(=O)ccc3c2)cc1
188 to 192 | NC(=O)N(O)CCNC(=O)c1csc(-c2ccccc2)n1
104 to 108 | Cc1nc(NCCCO)c([N+](=O)[O-])c(N2CCc3ccccc3CC2)n1
108 to 109 | CC(C)c1ccc2nc3ccc(C(=O)OCCCc4cccnc4)cn3c(=O)c2c1
207 to 210 | CN1CCN(c2ncnc3c([N+](=O)[O-])cccc23)C1=O
198 to 199 | Cc1c(C)c2c(c(C)c1NC(=O)CC(C)(C)C)C(C1CCCCC1)C(C)(C)O2 (stereo unspecified)
148 | CSc1ccc(C=CC(=O)c2cccc(Br)c2)cc1
141 to 142 | CCOC(=O)c1cc(C(=O)CBr)c(=O)[nH]c1C(=O)OCC
166 to 167 | O=C1C=CC(O)(c2cc3cc(F)ccc3n2S(=O)(=O)c2ccccc2)C=C1
206 to 207 | Cc1nccn1N=Cc1cc(C(C)(C)C)c(O)c(C(C)(C)C)c1
187 to 188 | CCCCc1nc2c(N)nc3ccccc3c2n1CCNS(=O)(=O)c1ccc(C)cc1
189 to 191 | CCOCc1nc2c(N)nc3cccnc3c2n1CC(C)(C)OCCS(C)(=O)=O
270 to 271 | O=C(Nc1ccc(O)c(C(=O)O)c1)c1ccc([N+](=O)[O-])cc1
53 to 55 | C=CCN(CC=C)c1cc(CCl)nc(N)n1
86 to 87 | O=[N+]([O-])c1cc(O)ccc1F
123 to 124 | CCOC(=O)n1c2ccccc2c(=O)n1Cc1ccc([N+](=O)[O-])cc1
116 | CCCCc1nn2ccccc2c1C(=O)c1ccccc1C#N
143 | COc1ccc(Cn2c(=O)oc(=O)c3cc(F)cnc32)cc1
> 250 | Cc1cc(-c2ccc(C(F)(F)F)cc2)cc(-c2ccnc(-c3cccc(S(N)(=O)=O)c3)n2)n1
131 | COc1ccc(CN(C)CCCCc2ccc(NC(=O)c3cccc4c(=O)c5cccc(F)c5[nH]c34)cc2)cc1OC
132 to 135 | CCSC1(CCO)C(=O)Nc2ccc(Cl)cc21 (stereo unspecified)
165 to 167 | CCC1(O)CC(=O)OCc2c1ccn(Cc1cc3cc4c(cc3nc1I)OCCO4)c2=O (stereo unspecified)
161 to 163 | CP1(=O)c2ccccc2CN1c1cccc(C(F)(F)F)c1 (stereo unspecified)
66 to 67 | COC(=O)CCSC(SCCC(=O)OC)c1cccc(C=Cc2nc3cc(Cl)ccc3o2)c1
293 to 295 | Cc1ccc([N+](=O)[O-])c(C=C2NC(=O)NC2=O)c1C
255 to 257 | CC1(C)Oc2ccc(C#N)cc2[C@@H](n2c(=O)[nH]c3ccccc32)[C@@H]1O (relative stereo)
> 250 | O=C(O)COc1ccc(C(=O)O)c(Cl)c1Cl
198 to 199 | O=C(O)c1c(-c2ccccc2)csc1N1C(=O)c2ccccc2C1=O
244 to 251 | O=C(COc1ccc(-c2ccc(F)cc2)cc1)Nc1cscc1C(=O)O
